Data published in patent publication US10844023B2 (Washington University, priority 2017, dated 2020).

Test system: Mfn2 null MEFs
Test: Mitochondrial elongation (aspect ratio) fusogenicity assay
Format: cell-based, mouse
Set-up: % long compare to B: dose or concentration left out as unconfirmed
Settings: Mfn2 null MEFs, overnight; treatment with 1 μM compound (footnote)
Text: A cultured murine embryonic fibroblast assay system was used in which mitochondrial elongation (an increase in aspect ratio) reflects enhanced mitochondrial fusion.
A pharmacophore model was generated based on the interactions of HR1 and HR2 domains in the calculated structural model of Mfn2 in the closed conformation. The key features included hydrophobic interactions involving Mfn2 HR1: Val372 and Met376, and aromatic interactions and hydrogen bonding involving Mfn2 HR1 His380. […] A library comprising ˜14 million commercially available compounds was prepared in silico and evaluated using PHASE to fit these criteria. Top ranked hits were clustered, and filtered based on pharmacological properties using Qikprop. The top 55 (see TABLE 4) commercially available small molecules conforming to the model were selected for functional screening and purchased in 1 mg aliquots. […] Images were acquired by confocal microscopy. Each compound was scored for fusogenicity (see e.g., FIG. 24A) and % cell death (see e.g., FIG. 24B).
Cells were excited with 408 nm (Hoechst), […] (MitoTracker Green and Calcein AM, GFP), or 637 nm (TMRE, MitoTracker Orange, Ethidium homodimer-1, and AF594-Dextran) laser diodes. For mitochondrial elongation studies mitochondrial aspect ratio (long axis/short axis) was calculated using automated edge detection and Image J software. Mitochondrial depolarization was calculated as % of green mitochondria visualized on MitoTracker Green and TMRE merged images, expressed as green/(green+yellow mitochondria)×100.

SMILES | Aspect ratio (MEAN ± SEM)
O=C(Nc1cc(CSCCOC(=O)C2C3CCCCC32)ccn1)C1C2CCCCC21 (centres unmarked) [2-{[(2-{bicyclo[4.1.0]heptane-7-amido}pyridin-4-yl)methyl]sulfanyl}ethyl bicyclo[4.1.0]heptane-7-carboxylate] | 4.8 ± 1.0

Same assay, conditions: mitochondrial elongation relative to Cpd B (B01 = 100); Mfn2 null MEFs, compound overnight as printed (FIG. 48)

SMILES | % long compare to B [%]
CC(Sc1nnc(-c2cccs2)n1-c1ccccc1)C(=O)Nc1sc2c(c1C(N)=O)CCC2 (centres unmarked) [1-F7, 2-(2-{[4-phenyl-5-(thiophen-2-yl)-4H-1,2,4-lriazol-3-yl]sul-fanyl}propanamido)-4H,5H,6H-cyclopenta[b]thiophene-3-carboxamide] | −26
CC(Sc1nnc(-c2c[nH]c3ccccc23)n1C1CC1)C(=O)Nc1sc2c(c1C(N)=O)CCC2 (centres unmarked) [1-F8, 2-(2-{[4-cyclopropyl-5-(1H-indol-3-yl)-4H-1,2,4-triazol-3-yl]sulfanyl}propanamido)-4H,5H,6H-cyclopenta[b]-thiophene-3-carboxamide] | 2
C=CCn1c(SCC(=O)Nc2sc3c(c2C(N)=O)CCCC3)nnc1C1CC1 [1-F9, 2-(2-{[5-cyclopropyl-4-(prop-2-en-1-yl)-4H-1,2,4-triazol-3-yl]sulfanyl}acet-amido)-4,5,6,7-tetrahydro-1-benzothiophene-3-carboxamide] | 202
CC(Sc1nnc(-c2cccnc2)n1Cc1ccco1)C(=O)Nc1sc2c(c1C(N)=O)CCC2 (centres unmarked) [1-F10, 2-[2-({4-[(furan-2-yl)methyl]-5-(pyridin-3-yl)-4H-1,2,4-triazol-3-yl}sulfanyl)propanamido]-4H,5H,6H-cyclopenta[b]-thiophene-3-carboxamide] | 29
NC(=O)c1c(NC(=O)CSc2nnc(-c3cccnc3)n2-c2ccccc2)sc2c1CCC2 [1-F11, 2-(2-{[4-phenyl-5-(pyridin-3-yl)-4H-1,2,4-triazol-3-yl]sulfanyl]acet-amido)-4H,5H,6H-cyclopenta[b]-thiophene-3-carboxamide] | 13
Cc1ccccc1-n1c(SCC(=O)Nc2sc3c(c2C(N)=O)CCC3)nnc1-c1cccnc1 [1-G1, 2-(2-{[4-(2-methylphenyl)-5-(pyridin-3-yl)-4H-1,2,4-triazol-3-yl]sulfanyl}acet-amido)-4H,5H,6H-cyclopenta[b]thiophene-3-carboxamide] | 141
NC(=O)c1c(NC(=O)CSc2nnc(-c3ccccc3)n2-c2ccccc2)sc2c1CCCC2 [1-G2, 2-{2-[(diphenyl-4H-1,2,4-triazol-3-yl)sulfanyl]acetamido}-4,5,6,7-tetrahydro-1-benzothiophene-3-carboxamide] | 20
CC(Sc1nnc(C2CC2)n1-c1ccccc1)C(=O)Nc1sc2c(c1C#N)CCCCC2 (centres unmarked) [1-G5, N-{3-cyano-4H,5H,6H,7H,8H-cyclohepta[b]thiophen-2-yl}-2-[(5-cyclopropyl-4-phenyl-4H-1,2,4-triazol-3-yl)sulfanyl]propana-mide] | 7
CC(Sc1nnc(Cc2cccs2)n1C1CC1)C(=O)Nc1sc2c(c1C(N)=O)CCC2 (centres unmarked) [1-G6, 2-[2-({4-cyclopropyl-5-[(thiophen-2-yl)methyl]-4H-1,2,4-triazol-3-yl}sulfanyl)propanamido]-4H,5H,6H-cyclopenta[b]thio-phene-3-carboxamide] | 9
CC(Sc1nccn1Cc1ccccc1)C(=O)Nc1sc2c(c1C(N)=O)CCC2 (centres unmarked) [1-G7, 2-{2-[(1-benzyl-1H-imidazol-2-yl)sulfanyl]propanamido}-4H,5H,6H-cyclopenta[b]thio-phene-3-carboxamide] | 3
CC(Sc1nncn1-c1ccccc1)C(=O)Nc1sc2c(c1C(N)=O)CCC2 (centres unmarked) [1-G8, 2-{2-[(4-phenyl-4H-1,2,4-triazol-3-yl)sulfanyl]propanamido}-4H,5H,6H-cyclopenta[b]thio-phene-3-carboxamide] | 14
Cc1nnc(SCC(=O)Nc2sc3c(c2C(N)=O)CCC3)n1-c1ccccc1 [1-H3, 2-{2-[(5-methyl-4-phenyl-4H-1,2,4-triazol-3-yl)sulfanyl]acet-amido}-4H,5H,6H-cyclo-penta[b]thiophene-3-carboxamide] | 10
NC(=O)c1c(NC(=O)CSc2nnc(-c3ccncc3)n2-c2ccc(F)cc2)sc2c1CCC2 [1-H5, 2-(2-{[4-(4-fluorophenyl)-5-(pyridin-4-yl)-4H-1,2,4-triazol-3-yl]sulfanyl]acetamido)-4H,5H,6H-cyclopenta[b]thio-phene-3-carboxamide] | 23
CC(Sc1nnc(Cc2ccccc2)n1C)C(=O)Nc1sc2c(c1C(N)=O)CCC2 (centres unmarked) [1-H6, 2-{2-[(5-benzyl-4-methyl-4H-1,2,4-triazol-3-yl)sulfanyl]propanamido}-4H.5H.6H-cyclopenta[b]-thiophene-3-carboxamide] | 8
Cn1c(Cc2ccccc2)nnc1SCC(=O)Nc1sc2c(c1C(N)=O)CCC2 [1-H7, 2-{2-[(5-benzyl-4-methyl-4H-1,2,4-triazol-3-yl)sulfanyl]-acetamido}-4H,5H,6H-cyclopenta[b]thiophene-3-carboxamide] | 6
CC(Sc1nnc(-c2ccccc2)n1-c1ccccc1)C(=O)Nc1sc2c(c1C(N)=O)CCC2 (centres unmarked) [1-H8, 2-{2-[(diphenyl-4H-1,2,4-triazol-3-yl)sulfanyl]propan-amido}-4H,5H,6H-cyclo-penta[b]thiophene-3-carboxamide] | −4

SMILES | % long compare to B [%]
O=C(NCCSCc1ccccc1)NC1CCCC1 [1-H9, 1-[2-(benzylsulfanyl)ethyl]-3-cyclopentylurea] | 29
NC(=O)c1c(NC(=O)CSc2nnc(C3CC3)n2Cc2ccccc2)sc2c1CCCC2 [1-H11, 2-{2-[(4-benzyl-5-cyclopropyl-4H-1,2,4-triazol-3-yl)-sulfanyl]acetamido}-4,5,6,7-tetrahydro-1-benzothiophene-3-carboxamide] | 15
Cn1c(CC(=O)Nc2ccccc2)nnc1SCC(=O)Nc1sc2c(c1C(=O)NCc1ccccc1)CCCC2 [2-A1, N-benzyl-2-[2-({4-methyl-5-[(phenylcarbamoyl)methyl]-4H-1,2,4-triazol-3-yl}sulfanyl)acetamido]-4,5,6,7-tetrahydro-1-benzothiophene-3-carboxamide] | 26
CCn1c(CCc2ccccc2)nnc1SCC(=O)Nc1sc2c(c1C(N)=O)CCC(C)C2 (centres unmarked) [2-A4, 2-(2-{[4-ethyl-5-(2-phenylethyl)-4H-1,2,4-triazol-3-yl]sulfanyl}acetamido)-6-methyl-4,5,6,7-tetrahydro-1-benzothiophene-3-carboxamide] | 3
Cc1nnc(SCC(=O)Nc2sc3c(c2C(N)=O)CCC3)n1C [2-A5, 2-{2-[(dimethyl-4H-1,2,4-triazol-3-yl)sulfanyl]acetamido}-4H,5H,6H-cyclopenta[b]thio-phene-3-carboxamide] | 2
CC(Sc1nnc(N2CCOCC2)n1Cc1ccccc1)C(=O)Nc1ccc2c(c1)OCO2 (centres unmarked) [A01, N-(2H-1,3-benzodioxol-5-yl)-2-{[4-benzyl-5-(morpholin-4-yl)-4H-1,2,4-triazol-3-yl]sulfanyl)propana-mide] | −14
O=C(NCCCCc1ccccc1)Nc1ccc(F)cc1 [A2, 3-(4-fluorophenyl)-1-(4-phenylbutyl)urea] | −4
Cc1cccc(NC(=O)NCCCCc2ccccc2)c1 [A3, 3-(3-methylphenyl)-1-(4-phenylbutyl)urea] | 32
Cc1ccc(NC(=O)NCCCCc2ccccc2)cc1 [A4, 3-(4-methylphenyl)-1-(4-phenylbutyl)urea] | 75
CC(Sc1ccc(Br)cc1)C(=O)Nc1ccc2c(c1)OCCO2 (centres unmarked) [A05, 2-[(4-bromophenyl)sulfanyl]-N-(2,3-dihydro-1,4-benzodioxin-6-yl)propanamide] | −2
Cc1ccccc1NC(=O)NCCCCc1ccccc1 [A5, 3-(2-methylphenyl)-1-(4-phenylbutyl)urea] | 7
Cc1ccc2c(c1)SC(C(=O)NCc1ccc(N3CCCN(C)CC3)nc1)C2 (centres unmarked) [A07, 6-methyl-N-{[6-(4-methyl-1,4-diazepan-1-yl)pyridin-3-yl]methyl}-2,3-dihydro-1-benzothiophene-2-carboxamide] | 14
CC(Sc1nc(CN2CCOCC2)nc2ccccc12)C(=O)Nc1cccc(C(F)(F)F)c1 (centres unmarked) [A08, 2-({2-[(morpholin-4-yl)methyl]quinazolin-4-yl}sulfanyl)-N-[3-(trifluoromethyl)-phenyl]propanamide] | 47
CC(Sc1nnc(N2CCOCC2)n1Cc1ccccc1)C(=O)Nc1ccc2c(c1)OCCO2 (centres unmarked) [A09, 2-{[4-benzyl-5-(morpholin-4-yl)-4H-1,2,4-triazol-3-yl]sulfanyl}-N-(2,3-dihydro-1,4-benzodioxin-6-yl)propanamide] | 55
CC1CCCCC1NC(=O)NCCSCc1ccccc1 (centres unmarked) [A10, 1-[2-(benzylsulfanyl)ethyl]-3-(2-methylcyclohexyl)urea] | 71
Cc1ccc(-n2nnnc2SC(C)c2nc(-c3nnc[nH]3)no2)cc1 (centres unmarked) [A11, 1-(4-methylphenyl)-5-({1-[3-(4H-1,2,4-triazol-3-yl)-1,2,4-oxadiazol-5-yl]ethyl}sulfanyl)-1H-1,2,3,4-tetrazole] | 4

Same assay, conditions: rank order of aspect ratio among 44 soluble library compounds

SMILES | Fusogenicity Rank
O=C(Nc1cc(CSCCOC(=O)C2C3CCCCC32)ccn1)C1C2CCCCC21 (centres unmarked) [2-{[(2-{bicyclo[4.1.0]heptane-7-amido}pyridin-4-yl)methyl]sulfanyl}ethyl bicyclo[4.1.0]heptane-7-carboxylate] | 10
CC1CCCCC1NC(=O)NCCSCc1ccccc1 (centres unmarked) [A10, 1-[2-(benzylsulfanyl)ethyl]-3-(2-methylcyclohexyl)urea] | 4
